Columns and labels:
Assay type in all cases: cell-based
[1] = test system: cell-cell fusion between cell line persistently expressing HIV and a cell line expressing CD4 and CXCR4; assay: entry reporter assay (ERA): inhibition of cell-cell fusion, FACS read-out; details: for EC50: Human immunodeficiency virus 1, read-out: ERA assay EC50; for ERA assay % inh: cell-cell fusion, concentration not given
Protocol: (§1) The compounds were tested in the anti-viral replication assay using the MT4-LTR-EGFP cells and in the ERA assay. Toxicity was measured using MT4-CMV-EGFP cells.

[2] = toxicity assay using MT4-CMV-EGFP cells (reduced expression of GFP reporter); details: human
Protocol: A toxicity assay wherein a reduced expression of the GFP reporter protein (Mt4-CMV-EGFP cells) serves as a marker for cellular toxicity of a test compound can be used to measure the toxicity of the present compounds.
as §1

HIV = assay: anti-viral replication assay using MT4-LTR-EGFP cells; details: Human immunodeficiency virus 1, read-out: antiviral EC50
Protocol: as §1

| SMILES | EC50 [1] [µM] | ERA assay % inh [1] [%] | CC50 [2] [µM] | EC50 (HIV) [µM] |
| --- | --- | --- | --- | --- |
| COc1ccc(S(=O)(=O)Nc2ccc(Oc3ccc(NC(=O)COC(C)=O)cc3)cc2)cc1 [Compound 1, acetic acid {4-[4-(4-methoxy-benzenesulfonylamino)-phenoxy]-phenylcarbamoyl}-methyl ester] | 92 | 89 | > 27.7 | 1.69 |
| O=C(Nc1ccc(Oc2cccc3cnccc23)cc1)c1ccc([N+](=O)[O-])cc1 [Compound 4] | > 200 | 30 | > 100 | 5.34 |
| N#Cc1ccc(C(=O)Nc2ccc(Oc3cccc4cnccc34)cc2)cc1 [Compound 5] | – | – | > 100 | 3.29 |
| O=C(O)c1ccc(S(=O)(=O)Nc2ccc(Oc3cccc4cnccc34)cc2)cc1 [Compound 6] | 182 | 52 | > 100 | 18.6 |
| O=C(CNCCN1CCCC1)Nc1ccc(Oc2cccc3c2N(C(=O)CNCCN2CCCC2)CCC3)cc1 [Compound 7] | > 200 | 29 | > 100 | 57.7 |
| O=C(CN[C@@H](Cc1ccccc1)C(=O)O)Nc1ccc(Oc2cccc(C(=O)O)c2)cc1C(F)(F)F [Compound 8] | > 200 | 3 | > 100 | > 100 |
| O=C(Cc1ccccc1)Nc1ccc(Oc2ccc(NC(=O)Cc3ccccc3)cc2)cc1 [Compound 10] | > 100 | 48 | > 32 | > 32 |
| COc1cccc(C(=O)Nc2ccc(Oc3ccc(NC(=O)c4cccc(OC)c4)cc3)cc2)c1 [Compound 11] | 68.9 | 64 | > 32 | > 32 |
| O=C(Nc1ccc(Oc2ccc(NC(=O)c3cccc([N+](=O)[O-])c3)cc2)cc1)c1cccc([N+](=O)[O-])c1 [Compound 12] | > 200 | 17 | 54.2 | 41.3 |
| CN1CCN(CC(=O)Nc2ccc(Oc3ccc(NC(=O)CN4CCN(C)CC4)cc3)cc2)CC1 [Compound 16] | > 200 | 42 | > 100 | 55 |
| O=C(COc1ccccc1)Nc1ccc(Oc2cccc3c2N(C(=O)COc2ccccc2)CCC3)cc1 [Compound 20] | > 100 | 39 | > 32 | 3.25 |
| CCCCc1ccc(C(=O)Nc2ccc(Oc3cccc4c3N(C(=O)c3ccc(CCCC)cc3)CCC4)cc2)cc1 [Compound 21] | > 200 | 9 | > 100 | > 34 |
| O=C(Nc1ccc(Oc2cccc3c2N(C(=O)c2ccco2)CCC3)cc1)c1ccco1 [Compound 23, Furan-2-carboxylic acid {4-[1-(furan-2-carbonyl)-1,2,3,4-tetrahydro-quinolin-8-yloxy]-phenyl}-amide] | 123 | 92 | 34.2 | 11.2 |
| O=C(COc1ccccc1)Nc1ccc(Oc2ccc([N+](=O)[O-])cc2)cc1 [Compound 24] | 78.4 | 68 | > 100 | 19.5 |
| COc1ccc(S(=O)(=O)Nc2ccc(Oc3ccc([N+](=O)[O-])cc3)cc2)cc1 [Compound 29] | 177 | 59 | 61.6 | 1.18 |
| COc1cccc(C(=O)Nc2ccc(Oc3ccc(NC(=O)COc4ccccc4)cc3)cc2)c1 [Compound 30] | – | – | 3.85 | 0.37 |
| O=C(COc1ccccc1)Nc1ccc(Oc2ccc(NC(=O)c3cccc([N+](=O)[O-])c3)cc2)cc1 [Compound 31] | > 100 | 13 | 3.41 | 0.43 |
| O=C(COc1ccccc1)Nc1ccc(Oc2ccc(NC(=O)c3ccc4c(c3)OCO4)cc2)cc1 [Compound 32] | > 200 | 29 | 19.9 | 4.17 |
| O=C(COc1ccccc1)Nc1ccc(Oc2ccc(NC(=O)Cc3ccccc3)cc2)cc1 [Compound 33] | 196 | 52 | 30.2 | 5.01 |
| O=C(COc1ccccc1)Nc1ccc(Oc2ccc(NC(=O)c3ccco3)cc2)cc1 [Compound 34] | > 200 | 41 | 83.2 | 1.24 |
| CC(=O)OCC(=O)Nc1ccc(Oc2ccc(NC(=O)COc3ccccc3)cc2)cc1 [Compound 35] | 150 | 55 | 23.6 | 3.28 |
| COc1ccc(S(=O)(=O)Nc2ccc(Oc3ccc(NC(=O)c4cccc(OC)c4)cc3)cc2)cc1 [Compound 36] | > 200 | 9 | 5.87 | 1.05 |
| COc1ccc(S(=O)(=O)Nc2ccc(Oc3ccc(NC(=O)c4cccc([N+](=O)[O-])c4)cc3)cc2)cc1 [Compound 37] | – | – | > 32 | 3.92 |
| COc1ccc(S(=O)(=O)Nc2ccc(Oc3ccc(NC(=O)Cc4ccccc4)cc3)cc2)cc1 [Compound 39] | > 100 | 45 | > 100 | 1.56 |
| COc1ccc(S(=O)(=O)Nc2ccc(Oc3ccc(NC(=O)c4ccco4)cc3)cc2)cc1 [Compound 40] | 40.9 | 79 | 22.4 | 0.15 |
| O=C(COc1ccccc1)NCc1cccc(Oc2ccc(NC(=O)COc3ccccc3)cc2)c1 [Compound 42] | > 200 | 37 | 46.5 | 3.77 |
| O=C(COCc1ccccc1)NCc1cccc(Oc2ccc(NC(=O)COCc3ccccc3)cc2)c1 [Compound 43] | 83.6 | 54 | > 32 | 11.8 |
| CCCCc1ccc(C(=O)NCc2cccc(Oc3ccc(NC(=O)c4ccc(CCCC)cc4)cc3)c2)cc1 [Compound 44] | > 200 | 22 | > 32 | 2 |
